Values quoted from earlier work as cited in patent US20040067256A1, “Novel modified release formulation” (priority 2001, published 2004).
Like-named read-outs stand apart in the source and are kept apart here.

Details: ambient temperature of 22-25° C.

CC(O)(CS(=O)(=O)c1ccc(F)cc1)C(=O)Nc1ccc(C#N)c(C(F)(F)F)c1 (racemic) [bicalutamide, 4′-cyano-α′,α′,α′-trifluoro-3-(4-fluorophenylsulphonyl)-2-hydroxy-2-methylpropiono-m-toluidide]
water-solubility (physiological pH): about 0.0046 mg/ml

CCOC(=O)C1=C(C)NC(C)=C(C(=O)OC)C1c1cccc(Cl)c1Cl (centres unmarked) [Felodipine, 2,6-dimethyl-4-(2,3-dichlorophenyl)-1,4-dihydropyridine-3,5-dicarboxylic acid-3-methyl ester-5-ethyl ester]
water-solubility: about 0.5 μg/ml
